Results from PubChem BioAssay (NCI).
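At the GI50, growth is halved. TGI: concentration producing complete growth inhibition.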

Experiments:
Test in all cases: DTP human tumour cell line panel, 384-well format
[1] = system: HL-60(TB) leukemia
[2] = system: SK-MEL-5 melanoma
[3] = system: KM12 colon
[4] = system: BT-549 breast
[5] = system: UACC-257 melanoma
[6] = system: 786-0 renal
[7] = system: A498 renal
[8] = system: HOP-92 NSCLC
[9] = system: ACHN renal
[10] = system: NCI-H322M lung
[11] = system: SF-539 CNS
[12] = system: OVCAR-5 ovarian
[13] = system: SF-295 CNS
[14] = system: MOLT-4 leukemia
[15] = system: HS 578T breast
[16] = system: NCI-H460 NSCLC
[17] = system: COLO 205 colon
[18] = system: CCRF-CEM leukemia
[19] = system: U251 glioblastoma
[20] = system: RPMI-8226 leukemia
[21] = system: UACC-62 melanoma
[22] = system: DU-145 prostate
[23] = system: IGROV1 ovarian
[24] = system: NCI-H226 lung
[25] = system: OVCAR-3 ovarian
[26] = system: HOP-62 NSCLC
[27] = system: MDA-MB-231 breast
[28] = system: SNB-75 CNS

Work on `CC(=O)c1cc2c(o1)C(=O)c1ccccc1C2=O` yielded a GI50 [1] of 0.202 µM, a TGI [1] of 0.347 µM and a GI50 [2] of 0.0558 µM. The TGI [2] was 0.178 µM, the GI50 [3] was 0.299 µM and the TGI [3] was 1.2 µM. The GI50 [4] was 0.141 µM, the TGI [4] was 0.272 µM and the GI50 [5] was 0.126 µM. It also gave a TGI [5] of 0.254 µM, a GI50 [6] of 0.707 µM and a TGI [6] of 2.04 µM. The GI50 [7] was 0.178 µM, the TGI [7] was 0.318 µM and the GI50 [8] was 0.363 µM. For the same compound, the TGI [8] was 1.39 µM, the GI50 [9] was 1.31 µM and the TGI [9] was 2.59 µM. It also gave a GI50 [10] of 0.177 µM, a TGI [10] of 0.317 µM and a GI50 [11] of 0.159 µM. For the same compound, the TGI [11] was 0.296 µM, the GI50 [12] was 0.149 µM and the TGI [12] was 0.283 µM. For the same compound, the GI50 [13] was 0.126 µM, the TGI [13] was 0.255 µM and the GI50 [14] was 0.215 µM. The TGI [14] was 0.437 µM, the GI50 [15] was 0.179 µM and the TGI [15] was 0.319 µM. For the same compound, the GI50 [16] was 0.172 µM, the TGI [16] was 0.314 µM and the GI50 [17] was 0.19 µM. The TGI [17] was 0.336 µM, the GI50 [18] was 0.357 µM and the TGI [18] was 1.09 µM. For the same compound, the GI50 [19] was 0.194 µM, the TGI [19] was 0.503 µM and the GI50 [20] was 0.132 µM. It also gave a TGI [20] of 0.374 µM, a GI50 [21] of 0.168 µM and a TGI [21] of 0.306 µM. The GI50 [22] was 0.137 µM, the TGI [22] was 0.268 µM and the GI50 [23] was 1.23 µM. For the same compound, the TGI [23] was 2.49 µM, the GI50 [24] was 0.166 µM and the TGI [24] was 0.303 µM. For the same compound, the GI50 [25] was 0.165 µM, the TGI [25] was 0.315 µM and the GI50 [26] was 0.0375 µM. The TGI [26] was 0.133 µM, the GI50 [27] was 0.293 µM and the TGI [27] was 1.2 µM. For the same compound, the GI50 [28] was 0.0341 µM and the TGI [28] was 0.101 µM.
